Here are results for two compounds from US8778897B2, “Method of treatment using α-1-adrenergic agonist compounds” (The Regents of the University of California, priority 2008, dated 2014).

The test system of series [1] is α1A receptors. The settings on record: cited from earlier work.
Series [2] concerns α1A-AR. Conditions: α1A-AR knock-out mice, infusion; cited from earlier work.
The target of series [3] is T1, α1A receptor (Mus musculus, UniProt P97718).
T1 construct: host or cells: wild-type mice (whole animal, endogenous receptor)
T1 sequence (P97718 1-466): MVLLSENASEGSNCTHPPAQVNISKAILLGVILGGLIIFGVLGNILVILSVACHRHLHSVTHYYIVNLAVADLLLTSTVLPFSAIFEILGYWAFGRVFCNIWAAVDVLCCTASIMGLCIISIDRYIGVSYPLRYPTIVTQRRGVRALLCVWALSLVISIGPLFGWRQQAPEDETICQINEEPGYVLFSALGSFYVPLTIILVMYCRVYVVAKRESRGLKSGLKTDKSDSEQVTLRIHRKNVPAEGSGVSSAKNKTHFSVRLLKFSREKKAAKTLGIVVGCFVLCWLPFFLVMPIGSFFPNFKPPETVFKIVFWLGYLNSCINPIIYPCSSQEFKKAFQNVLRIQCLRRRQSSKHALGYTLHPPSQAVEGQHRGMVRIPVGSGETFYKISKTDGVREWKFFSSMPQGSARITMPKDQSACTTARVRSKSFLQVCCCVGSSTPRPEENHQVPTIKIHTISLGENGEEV
The settings on record: wild-type mice, infusion; cited from earlier work.

In series [4] the test system is wild type male C57BI6J mice. Kind of series: Doxorubicin-induced cardiomyopathy in wild type mice. It is filed as in vivo. Conditions: single doxorubicin 25 mg/kg i.p., A61603 10 ng/kg/day or vehicle infused over 7 days; for Fibrosis area (%): Sirius red; for Fibrosis area (%) / TUNEL-positive / ECHO FS (%) / Serum CK (U/L): mean ± SE; for TUNEL-positive: apoptosis; for Survival 7 days (%): untreated 100. The procedure:
(§1) The alpha-1-adrenergic receptor agonist, A61603, was administered to 11 week-old wild type male C57BI6J mice using an osmotic minipump. Cardiomyopathy was induced with a single dose of doxorubicin (25 mg/kg) administered intraperitoneally. Blood pressure was measured by tail cuff, activated (phosphorylated) P-ERK by immunoblot, heart mRNA by RT-qPCR, fractional shortening (FS) by echocardiography (ECHO), myocyte necrosis by serum creatine kinase (CK), apoptosis by TUNEL stain, and fibrosis by Sirius red stain.
A61603 at the non-hypertensive dose of 10 ng/kg/day or vehicle was infused over 7 days after a single injection of doxorubicin.

The nature of series [5]: Dose finding study, daily tail cuff blood pressure in mice. Type of series: in vivo. The method, then: as §1
In a dose finding study, (0.01-100 μg/kg/day),
A61603 at 10 ng/kg/day over 7 days had no effect on daily tail cuff blood pressure, as evidenced by the average blood pressure of the control, vehicle treated mice of 115±4 mmHg and the average blood pressure of the mice treated with A61603 of 119±4 mmHg.

Series [6] concerns alpha-1A adrenergic receptor. Kind of series: Doxorubicin-induced cardiomyopathy in alpha-1A-subtype knock-out mice. It is filed as in vivo.

Regarding `Br.CS(=O)(=O)Nc1c(O)ccc2c1CCCC2C1=NCCN1` (stereo not drawn) [A61603, N-[5-(4,5-Dihydro-1H-imidazol-2-yl)-2-hydroxy-5,6,7,8-tetrahydronaphthalen-1-yl]methanesulfonamide hydrobromide], in series [1], the “potency at α1A receptors relative to α1B or α1D sites” value is recorded as “at least 35 fold”. Besides, the “potency as α1A AR agonist compared with phenylephrine” value in series [1] (versus non-selective α1 AR agonist phenylephrine) is on record as “more potent”. The “effect on mean arterial pressure” value in series [2] is “no effect”. In series [3], the “EC50 for increase of mean arterial pressure” value was 0.3 µg/kg, the “increased mean arterial pressure (MAP)” value is 35 mm Hg and the “increased mean arterial pressure (MAP) over basal” value was 25%. In series [4], the “Fibrosis area (%)” value came out at 25 ± 1%, the TUNEL-positive amounted to 0.5 ± 0.1, the “ECHO FS (%)” value is recorded as 67 ± 1% and the “Serum CK (U/L)” value worked out at 571 ± 67 U/L. Moreover, in series [4], the “Survival 7 days (%)” value was found to be 100%. In addition, the “effect on daily tail cuff blood pressure” value in series [5] (10 ng/kg/day over 7 days) is recorded as “no effect”. Moreover, the average blood pressure in series [5] (10 ng/kg/day over 7 days, osmotic minipump, tail cuff, vehicle control 115±4 mmHg) is reported as 119±4 mmHg. The “effect on blood pressure at higher doses” value in series [5] (doses higher than 10 ng/kg/day (range 0.01-100 μg/kg/day)) is listed as “increased blood pressure”. Also, in series [6] (data not shown), the “benefit of A61603 against doxorubicin cardiomyopathy” value is recorded as “no beneficial result”.

As to `COc1cccc2c1C(=O)c1c(O)c3c(c(O)c1C2=O)C[C@@](O)(C(=O)CO)C[C@@H]3O[C@H]1C[C@H](N)[C@H](O)[C@H](C)O1` [Doxorubicin, doxorubicin, reference compound], in series [4], the “Fibrosis area (%)” value is listed as 32 ± 1%, the TUNEL-positive turned out to be 1.3 ± 0.2, the “ECHO FS (%)” value is 55 ± 3% and the “Serum CK (U/L)” value is 1204 ± 98 U/L. Also, the “Survival 7 days (%)” value in series [4] is 60%. Also, the “apoptosis and mortality compared with wild-type mice” value in series [6] (doxorubicin) was “increased apoptosis and mortality”.
